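Following 48 hours of exposure in 96-well plates, responses at five concentrations were used to interpolate endpoints linearly. Here, GI50 denotes the concentration required for 50% inhibition of growth.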 Active and inactive are the calls of the source. Cut-off read from the data, not from the text of the source: active = GI50 up to about 1.1 µM and inactive = higher.
Columns and labels:
Assay in all cases: NCI tumour cell line growth inhibition, 48 h
SF-295 = system: SF-295
TK-10 = system: TK-10
NCI-H460 = system: NCI-H460
SK-MEL-28 = system: SK-MEL-28
SN12C = system: SN12C
KM12 = system: KM12
A498 = system: A498
SW-620 = system: SW-620
NCI-H23 = system: NCI-H23
HCC 2998 = system: HCC 2998
NCI-H226 = system: NCI-H226
OVCAR-8 = system: OVCAR-8
Malme-3M = system: Malme-3M
K562 = system: K562
HOP-92 = system: HOP-92
A549 = system: A549
UO-31 = system: UO-31
SNB-75 = system: SNB-75
SR = system: SR

Measured: GI50

CCN(CC)CC(=N)N(CC)c1ccccc1
inactive: SF-295 > 100 µM | TK-10 > 100 µM | NCI-H460 > 100 µM | SK-MEL-28 > 100 µM | SN12C > 100 µM | KM12 > 100 µM | A498 > 100 µM | SW-620 > 100 µM | NCI-H23 > 100 µM | HCC 2998 93.3 µM | NCI-H226 > 100 µM | OVCAR-8 > 100 µM | Malme-3M > 100 µM | K562 > 100 µM | HOP-92 > 100 µM | A549 > 100 µM | UO-31 > 100 µM | SNB-75 33.7 µM

CSC(=N)NNC(=O)CCC(=O)Nc1ccccc1C(F)(F)F
inactive: SF-295 > 100 µM | TK-10 > 100 µM | NCI-H460 > 100 µM | SK-MEL-28 > 100 µM | SN12C > 100 µM | KM12 > 100 µM | A498 > 100 µM | SW-620 > 82.2 µM | NCI-H23 > 100 µM | HCC 2998 > 100 µM | NCI-H226 > 100 µM | OVCAR-8 > 100 µM | Malme-3M > 100 µM | SR > 100 µM | K562 > 100 µM | HOP-92 > 100 µM | A549 > 100 µM | UO-31 > 100 µM | SNB-75 > 52.2 µM

CCCCC1=C(Br)C(=C(Br)Br)OC1=O
inactive: SF-295 10.6 µM | NCI-H460 4.56 µM | SK-MEL-28 2.78 µM | SN12C 2.75 µM | KM12 3.29 µM | A498 15.2 µM | SW-620 3.34 µM | NCI-H23 4.37 µM | HCC 2998 6.31 µM | NCI-H226 4 µM | OVCAR-8 3.17 µM | Malme-3M 2.25 µM | K562 3.32 µM | HOP-92 11 µM | A549 17.1 µM | UO-31 11.9 µM | SNB-75 5.64 µM

COC(=O)C1OC(Oc2cc(O)c3c(=O)cc(-c4ccc(O)cc4)oc3c2)C(O)C(O)C1O (configuration not stated)
inactive: SF-295 > 100 µM | NCI-H460 > 100 µM | SK-MEL-28 > 100 µM | SN12C > 100 µM | KM12 > 100 µM | A498 > 100 µM | SW-620 > 100 µM | NCI-H23 > 100 µM | HCC 2998 > 100 µM | NCI-H226 > 100 µM | OVCAR-8 > 100 µM | Malme-3M > 100 µM | K562 > 100 µM | HOP-92 > 100 µM | A549 > 100 µM | UO-31 > 100 µM | SNB-75 > 100 µM

O=C(NC1C(O)C(O)C(CO)OC1n1cc(F)c(=O)[nH]c1=O)OCc1ccccc1 (configuration not stated)
inactive: SF-295 > 100 µM | TK-10 > 100 µM | NCI-H460 > 100 µM | SK-MEL-28 > 100 µM | SN12C > 100 µM | KM12 > 100 µM | A498 > 100 µM | SW-620 > 100 µM | NCI-H23 > 100 µM | HCC 2998 > 100 µM | NCI-H226 > 100 µM | Malme-3M > 100 µM | SR > 100 µM | HOP-92 > 100 µM | A549 > 100 µM | SNB-75 > 100 µM

CCCCC(NC(=O)CC)C(=O)O (configuration not stated)
inactive: SF-295 > 100 µM | NCI-H460 > 100 µM | SK-MEL-28 > 100 µM | SN12C > 100 µM | KM12 > 100 µM | A498 > 100 µM | SW-620 > 100 µM | NCI-H23 > 100 µM | HCC 2998 > 31.6 µM | NCI-H226 > 100 µM | OVCAR-8 > 100 µM | Malme-3M > 100 µM | K562 > 100 µM | HOP-92 > 100 µM | A549 > 100 µM | UO-31 > 100 µM | SNB-75 > 100 µM

O=C(NC1C2CC3CC(C2)CC1C3)c1cc(/C=C/c2ccccc2)nc(S)n1 (configuration not stated)
inactive: SF-295 > 100 µM | TK-10 > 100 µM | NCI-H460 > 100 µM | SK-MEL-28 > 100 µM | KM12 > 100 µM | A498 > 100 µM | SW-620 > 100 µM | NCI-H23 > 100 µM | HCC 2998 > 100 µM | OVCAR-8 > 100 µM | Malme-3M > 100 µM | SR > 100 µM | K562 > 100 µM | A549 > 100 µM | UO-31 > 100 µM | SNB-75 > 100 µM

C#CCn1c(=O)c(C#N)c(O)c2cc3ccccc3nc21
inactive: SF-295 > 100 µM | NCI-H460 > 100 µM | SK-MEL-28 > 100 µM | SN12C > 100 µM | KM12 > 100 µM | A498 > 100 µM | SW-620 > 100 µM | NCI-H23 > 100 µM | HCC 2998 > 100 µM | NCI-H226 > 84.1 µM | OVCAR-8 > 100 µM | Malme-3M > 100 µM | K562 > 100 µM | HOP-92 > 100 µM | A549 > 100 µM | UO-31 > 100 µM | SNB-75 > 100 µM

— ChEMBL document CHEMBL1201862, “PubChem BioAssay data set” (2004)
